This is an account of results in ChEMBL document CHEMBL3868618, “Synthesis and biological evaluation of chalcone derivatives containing aminoguanidine or acylhydrazone moieties” (Bioorg Med Chem Lett, 2016).

The subject of test [1] is Escherichia coli. The test can be described thus: Antibacterial activity against Escherichia coli 1924 measured after 24 hrs by two-fold serial dilution method. The test is classed as functional. The conditions noted are these: Escherichia coli, 1924, 24 h.
Test [2] deals with Streptococcus mutans. The test can be described thus: Antibacterial activity against Streptococcus mutans 3065 measured after 24 hrs by two-fold serial dilution method. The test is classed as functional. The conditions noted are these: Streptococcus mutans, 3065, 24 h.
For test [3], the system named is Staphylococcus aureus. The test is described as follows: Antibacterial activity against quinolone-resistant Staphylococcus aureus 3505 measured after 24 hrs by two-fold serial dilution method. The test is classed as functional. The note with it: Staphylococcus aureus, 3505, 24 h.
Test [4] relates to Staphylococcus aureus. The test is described as follows: Antibacterial activity against Staphylococcus aureus 209 measured after 24 hrs by two-fold serial dilution method. The test is classed as functional. The conditions noted are these: Staphylococcus aureus, 209, 24 h.
Test [5] concerns Staphylococcus aureus. The test is described as follows: Antibacterial activity against quinolone-resistant Staphylococcus aureus 3519 measured after 24 hrs by two-fold serial dilution method. The test is classed as functional. The note with it: Staphylococcus aureus, 3519, 24 h.
The test system of test [6] is Mus musculus. The test is described as follows: Antiinflammatory activity in mouse assessed as inhibition of xylene-induced ear edema at 100 mg/kg, ip administered 30 mins before xylene challenge measured after 30 mins relative to DMSO-control. The test is classed as functional.
For test [7], the system named is Pseudomonas aeruginosa. The test is described as follows: Antibacterial activity against Pseudomonas aeruginosa 2742 measured after 24 hrs by two-fold serial dilution method. The conditions noted are these: Pseudomonas aeruginosa, 2742, 24 h. The test is classed as functional.
The test system of test [8] is Staphylococcus aureus. The test can be described thus: Antibacterial activity against Staphylococcus aureus 4220 measured after 24 hrs by two-fold serial dilution method. The test is classed as functional. The conditions noted are these: Staphylococcus aureus, 4220, 24 h.
Test [9] deals with Candida albicans. The test can be described thus: Antifungal activity against Candida albicans 7535 measured after 24 hrs by two-fold serial dilution method. The test is classed as functional. The conditions noted are these: Candida albicans, 7535, 24 h.
Test [10] has as its system Staphylococcus aureus. The test is described as follows: Antibacterial activity against Staphylococcus aureus 503 measured after 24 hrs by two-fold serial dilution method. The test is classed as functional. The note with it: Staphylococcus aureus, 503, 24 h.
Test [11] deals with Staphylococcus aureus. The test is described as follows: Antibacterial activity against methicillin-resistant Staphylococcus aureus 3167 measured after 24 hrs by two-fold serial dilution method. The test is classed as functional. The note with it: Staphylococcus aureus, 3167, 24 h.
In test [12] the test system is Staphylococcus aureus. The test can be described thus: Antibacterial activity against methicillin-resistant Staphylococcus aureus 3506 measured after 24 hrs by two-fold serial dilution method. The conditions noted are these: Staphylococcus aureus, 3506, 24 h. The test is classed as functional.
Test [13] has as its system Escherichia coli. The test can be described thus: Antibacterial activity against Escherichia coli 1356 measured after 24 hrs by two-fold serial dilution method. The test is classed as functional. The conditions noted are these: Escherichia coli, 1356, 24 h.
Test [14] deals with Salmonella typhimurium. The test can be described thus: Antibacterial activity against Salmonella typhimurium 1926 measured after 24 hrs by two-fold serial dilution method. The test is classed as functional, Salmonella enterica subsp. enterica serovar Typhimurium. The note with it: Salmonella enterica, 1926, 24 h.

Each structure is given as a SMILES string. Converted amounts (≈) assume the structure as drawn.

Regarding `N=C(N)N/N=C/c1ccc(/C=C/C(=O)c2ccc(F)cc2)cc1`, the MIC in test [1] came out at 4 µg/mL (≈ 12.9 µM); in test [2], 8 µg/mL (≈ 25.8 µM); in test [3], 8 µg/mL (≈ 25.8 µM); in test [4], 8 µg/mL (≈ 25.8 µM); in test [5] it was 8 µg/mL (≈ 25.8 µM); in test [7] it was 4 µg/mL (≈ 12.9 µM). In addition, the MIC in test [8] came out at 4 µg/mL (≈ 12.9 µM); in [9] it was 4 µg/mL (≈ 12.9 µM); in test [10], 8 µg/mL (≈ 25.8 µM); in [11] it was 8 µg/mL (≈ 25.8 µM); in [12], 4 µg/mL (≈ 12.9 µM); in [13], 8 µg/mL (≈ 25.8 µM). In [14], the MIC stood at 4 µg/mL (≈ 12.9 µM). Moreover, the inhibition in vivo at 100 mg/kg in test [6] was found to be 90.7%.
`O=C(/C=C/c1ccc(/C=N/NC(=O)c2cccc(Cl)c2)cc1)c1cccc(Cl)c1`: the MIC in [1] is 32 µg/mL (≈ 75.6 µM); in test [2], over 64 µg/mL; in [3] it was 32 µg/mL (≈ 75.6 µM); in [4], 32 µg/mL (≈ 75.6 µM); in test [5], 32 µg/mL (≈ 75.6 µM); in test [7], over 64 µg/mL. Moreover, the MIC in [8] was 32 µg/mL (≈ 75.6 µM); in [9] it was over 64 µg/mL; in [10], 32 µg/mL (≈ 75.6 µM); in test [11] it was 32 µg/mL (≈ 75.6 µM); in test [12], 32 µg/mL (≈ 75.6 µM); in [13] it was 32 µg/mL (≈ 75.6 µM). This molecule registered an MIC in test [14] of over 64 µg/mL.
Turning to `Cc1ccc(C(=O)/C=C/c2ccc(/C=N/NC(=N)N)cc2)cc1`, the minimal inhibitory concentration (MIC) in [1] is 4 µg/mL (≈ 13.1 µM); in test [2], 8 µg/mL (≈ 26.1 µM); in test [3] it was 4 µg/mL (≈ 13.1 µM); in [4] it was 4 µg/mL (≈ 13.1 µM); in test [5], 4 µg/mL (≈ 13.1 µM); in [7] it was 2 µg/mL (≈ 6.53 µM). Moreover, the MIC was found to be 4 µg/mL (≈ 13.1 µM) in [8]; 2 µg/mL (≈ 6.53 µM) in [9]; 4 µg/mL (≈ 13.1 µM) in test [10]; 8 µg/mL (≈ 26.1 µM) in test [11]; 2 µg/mL (≈ 6.53 µM) in test [12]; 8 µg/mL (≈ 26.1 µM) in [13]. For the same molecule, 4 µg/mL (≈ 13.1 µM) was the least that counted as inhibitory in test [14] (MIC). Moreover, the inhibition in vivo at 100 mg/kg in test [6] worked out at 77.7%.
Regarding `OC(Cn1cncn1)(Cn1cncn1)c1ccc(F)cc1F` [FLUCONAZOLE], it took 1 µg/mL (≈ 3.27 µM) to inhibit growth in test [9] (MIC).
For `COc1c(N2CCNC(C)C2)c(F)cc2c(=O)c(C(=O)O)cn(C3CC3)c12` (stereo not drawn) [GATIFLOXACIN], the MIC turned out to be 2 µg/mL (≈ 5.33 µM) in [1]; 0.5 µg/mL (≈ 1.33 µM) in test [2]; 8 µg/mL (≈ 21.3 µM) in [3]; 2 µg/mL (≈ 5.33 µM) in test [4]; 4 µg/mL (≈ 10.7 µM) in test [5]; 1 µg/mL (≈ 2.66 µM) in test [7]. For the same molecule, the MIC in test [8] turned out to be 0.25 µg/mL (≈ 0.666 µM); in test [10] it was 4 µg/mL (≈ 10.7 µM); in [11], 2 µg/mL (≈ 5.33 µM); in test [12], 2 µg/mL (≈ 5.33 µM); in [13], 16 µg/mL (≈ 42.6 µM); in [14], 2 µg/mL (≈ 5.33 µM).
For the molecule `CC(C)Cc1ccc(C(C)C(=O)O)cc1` (stereo not drawn) [IBUPROFEN], the inhibition in vivo at 100 mg/kg in test [6] came out at 87.4%.
Turning to `COc1c(N2C[C@@H]3CCCN[C@@H]3C2)c(F)cc2c(=O)c(C(=O)O)cn(C3CC3)c12` [MOXIFLOXACIN], the MIC in [2] worked out at 0.25 µg/mL (≈ 0.623 µM); in [8] it was 0.25 µg/mL (≈ 0.623 µM); in test [10] it was 2 µg/mL (≈ 4.98 µM); in [13], 128 µg/mL (≈ 319 µM); in test [14], 1 µg/mL (≈ 2.49 µM).
With `CCn1cc(C(=O)O)c(=O)c2cc(F)c(N3CCNCC3)cc21` [NORFLOXACIN], the MIC in test [3] is over 64 µg/mL; in [5], over 64 µg/mL; in test [11], 8 µg/mL (≈ 25.1 µM); in test [12], 4 µg/mL (≈ 12.5 µM).
Consider `Cc1onc(-c2ccccc2)c1C(=O)N[C@@H]1C(=O)N2[C@@H]1SC(C)(C)[C@@H]2C(=O)O` [OXACILLIN], for which the MIC in test [3] is 1 µg/mL (≈ 2.49 µM); in test [5], 1 µg/mL (≈ 2.49 µM); in [11], over 64 µg/mL; in test [12], over 64 µg/mL.

By MIC is commonly meant the smallest concentration in the dilution series that meets the test's criterion for growth inhibition. Low values mean greater potency, high ones weaker potency. One may read the inhibition in vivo as how much of the control response was suppressed.
